Laboratory results published in US11542274B1, “Therapeutic compounds and methods of use thereof” (AGENCY FOR SCIENCE, TECHNOLOGY AND RESEARCH (A*STAR), priority 2019, dated 2023).

Each molecule was assayed on RAMOS cells (Burkitt's lymphoma cell line) (assay: Anti-proliferation assay (CellTiter-Glo)). Settings: Homo sapiens, 72 h, 3 days.
Type: cell-based
Description: In cell growth experiments, cells were seeded in 96-well cell culture plates at a density of 3000 of RAMOS cells/well in 100 μL of culture medium. 100 μL of the diluted solution containing the tested compound was added to the appropriate wells of the cell plate. After addition of the tested compound, the cells were incubated at 37° C. in an atmosphere of 5% CO2 for 3 days. CellTiter-Glo (CTG) reagent from the Promega CellTiter-Glo Luminescent Cell Viability Assay kit (#G7572) was added into an OptiPlate 96 (Perkin Elmer, White, Opaque, #6005299) in the dark, incubated for at least 2 hrs, and luminescence signal was read using Tecan Safire II Multi-Mode Plate Reader. The GI50 was calculated by nonlinear regression analysis using GraphPad Prism5 software.
GI50 is the concentration for 50% of maximal inhibition of cell proliferation.

SMILES	GI50
Cc1sc2c(c1C)C(c1ccc(Cl)cc1)=N[C@@H](CC(=O)NCCOCCNc1ccc(-c3ccc4c(c3)CC(=O)N4)cn1)c1nnc(C)n1-2 [Compound 117, (S)-2-(4-(4-chlorophenyl)-2,3,9-trimethyl-6H-thieno[3,2-f][1,2,4]triazolo[4,3-a][1,4]diazepin-6-yl)-N-(2-(2-((5-(2-oxoindolin-5-yl)pyridin-2-yl)amino)ethoxy)ethyl)acetamide]	0.001 to 0.1 µM
Cc1sc2c(c1C)C(c1ccc(Cl)cc1)=N[C@@H](CC(=O)NCCOCCOCCOCCC(=O)NC1CCCN(C(=O)c3ccc4c(c3)CC(=O)N4)C1)c1nnc(C)n1-2 (stereo partly drawn) [Compound 112, 3-(2-(2-(2-(2-((S)-4-(4-chlorophenyl)-2,3,9-trimethyl-6H-thieno[3,2-f][1,2,4]triazolo[4,3-a][1,4]diazepin-6-yl)acetamido)ethoxy)ethoxy)ethoxy)-N-(1-(2-oxoindoline-5-carbonyl)piperidin-3-yl)propanamide]	0.1 to 1 µM
Cc1sc2c(c1C)C(c1ccc(Cl)cc1)=N[C@@H](CC(=O)NCCCCCNc1ccc(-c3ccc4c(c3)CC(=O)N4)cn1)c1nnc(C)n1-2 [Compound 126, (S)-2-(4-(4-chlorophenyl)-2,3,9-trimethyl-6H-thieno[3,2-f][1,2,4]triazolo[4,3-a][1,4]diazepin-6-yl)-N-(5-((5-(2-oxoindolin-5-yl)pyridin-2-yl)amino)pentyl)acetamide]	0.001 to 0.1 µM
Cc1sc2c(c1C)C(c1ccc(Cl)cc1)=N[C@@H](CC(=O)NCCCCNc1ncccc1-c1ccc3c(c1)CC(=O)N3)c1nnc(C)n1-2 [Compound 139, (S)-2-(4-(4-chlorophenyl)-2,3,9-trimethyl-6H-thieno[3,2-f][1,2,4]triazolo[4,3-a][1,4]diazepin-6-yl)-N-(4-((3-(2-oxoindolin-5-yl)pyridin-2-yl)amino)butyl)acetamide]	0.1 to 1 µM
Cc1sc2c(c1C)C(c1ccc(Cl)cc1)=N[C@@H](CC(=O)NCCNc1ccc(-c3ccc4c(c3)CC(=O)N4)cn1)c1nnc(C)n1-2 [Compound 124, (S)-2-(4-(4-chlorophenyl)-2,3,9-trimethyl-6H-thieno[3,2-f][1,2,4]triazolo[4,3-a][1,4]diazepin-6-yl)-N-(2-((5-(2-oxoindolin-5-yl)pyridin-2-yl)amino)ethyl)acetamide]	0.001 to 0.1 µM
Cc1sc2c(c1C)C(c1ccc(Cl)cc1)=N[C@@H](CC(=O)NCCOCCOCCOCCOCCNc1ccc(-c3ccc4c(c3)CC(=O)N4)cn1)c1nnc(C)n1-2 [Compound 114, (S)-2-(4-(4-chlorophenyl)-2,3,9-trimethyl-6H-thieno[3,2-f][1,2,4]triazolo[4,3-a][1,4]diazepin-6-yl)-N-(14-((5-(2-oxoindolin-5-yl)pyridin-2-yl)amino)-3,6,9,12-tetraoxatetradecyl)acetamide]	0.1 to 1 µM
Cc1sc2c(c1C)C(c1ccc(Cl)cc1)=N[C@@H](CC(=O)NCCOCCOCCOCCNc1cc(-c3ccc4c(c3)NC(=O)C4)ccn1)c1nnc(C)n1-2 [Compound 113, (S)-2-(4-(4-chlorophenyl)-2,3,9-trimethyl-6H-thieno[3,2-f][1,2,4]triazolo[4,3-a][1,4]diazepin-6-yl)-N-(2-(2-(2-(2-((4-(2-oxoindolin-6-yl)pyridin-2-yl)amino)ethoxy)ethoxy)ethoxy)ethyl)acetamide]	0.1 to 1 µM
Cc1sc2c(c1C)C(c1ccc(Cl)cc1)=N[C@@H](CC(=O)NCCCCCNc1ncccc1-c1ccc3c(c1)CC(=O)N3)c1nnc(C)n1-2 [Compound 105, (S)-2-(4-(4-chlorophenyl)-2,3,9-trimethyl-6H-thieno[3,2-f][1,2,4]triazolo[4,3-a][1,4]diazepin-6-yl)-N-(5-((3-(2-oxoindolin-5-yl)pyridin-2-yl)amino)pentyl)acetamide]	0.001 to 0.1 µM
Cc1sc2c(c1C)C(c1ccc(Cl)cc1)=N[C@@H](CC(=O)NCCOCCOCCOCCNc1ccc(-c3ccc4c(c3)CC(=O)N4C)cn1)c1nnc(C)n1-2 [Compound 121, (S)-2-(4-(4-chlorophenyl)-2,3,9-trimethyl-6H-thieno[3,2-f][1,2,4]triazolo[4,3-a][1,4]diazepin-6-yl)-N-(2-(2-(2-(2-((5-(1-methyl-2-oxoindolin-5-yl)pyridin-2-yl)amino)ethoxy)ethoxy)ethoxy)ethyl)acetamide]	0.1 to 1 µM
Cc1sc2c(c1C)C(c1ccc(Cl)cc1)=N[C@@H](CC(=O)Nc1ccc(OCCOCCOCCNc3ccc(-c4ccc5c(c4)CC(=O)N5)cn3)cc1)c1nnc(C)n1-2 [Compound 118, (S)-2-(4-(4-chlorophenyl)-2,3,9-trimethyl-6H-thieno[3,2-f][1,2,4]triazolo[4,3-a][1,4]diazepin-6-yl)-N-(4-(2-(2-(2-((5-(2-oxoindolin-5-yl)pyridin-2-yl)amino)ethoxy)ethoxy)ethoxy)phenyl)acetamide]	0.1 to 1 µM
Cc1sc2c(c1C)C(c1ccc(Cl)cc1)=N[C@@H](CC(=O)Nc1ccc(OCCOCCOCCOCCNC(=O)c3cccc(-c4ccc5c(c4)CC(=O)N5)c3)cc1)c1nnc(C)n1-2 [Compound 103, (S)—N-(2-(2-(2-(2-(4-(2-(4-(4-chlorophenyl)-2,3,9-trimethyl-6H-thieno[3,2-f][1,2,4]triazolo[4,3-a][1,4]diazepin-6-yl)acetamido)phenoxy)ethoxy)ethoxy)ethoxy)ethyl)-3-(2-oxoindolin-5-yl)benzamide]	0.1 to 1 µM
Cc1sc2c(c1C)C(c1ccc(Cl)cc1)=N[C@@H](CC(=O)NC1CCN(c3ccc(-c4ccc5c(c4)CC(=O)N5)cn3)C1)c1nnc(C)n1-2 (stereo partly drawn) [Compound 129, 2-((S)-4-(4-chlorophenyl)-2,3,9-trimethyl-6H-thieno[3,2-f][1,2,4]triazolo[4,3-a][1,4]diazepin-6-yl)-N-(1-(5-(2-oxoindolin-5-yl)pyridin-2-yl)pyrrolidin-3-yl)acetamide]	0.001 to 0.1 µM
Cc1sc2c(c1C)C(c1ccc(Cl)cc1)=N[C@@H](CC(=O)Nc1ccc(OCCOCCOCCOCCNc3ccc(-c4ccc5c(c4)CC(=O)N5)cc3)cc1)c1nnc(C)n1-2 [Compound 104, (S)-2-(4-(4-chlorophenyl)-2,3,9-trimethyl-6H-thieno[3,2-f][1,2,4]triazolo[4,3-a][1,4]diazepin-6-yl)-N-(4-(2-(2-(2-(2-((4-(2-oxoindolin-5-yl)phenyl)amino)ethoxy)ethoxy)ethoxy)ethoxy)phenyl)acetamide]	0.001 to 0.1 µM

More lines, now with the values ahead:

GI50	SMILES
> 1 µM	Cc1sc2c(c1C)C(c1ccc(Cl)cc1)=N[C@@H](CC(=O)NCCOCCOCCOCCC(=O)NC1CCCN(C(=O)c3ccc4c(c3)NC(=O)C4)C1)c1nnc(C)n1-2 (stereo partly drawn) [Compound 111, 3-(2-(2-(2-(2-((S)-4-(4-chlorophenyl)-2,3,9-trimethyl-6H-thieno[3,2-f][1,2,4]triazolo[4,3-a][1,4]diazepin-6-yl)acetamido)ethoxy)ethoxy)ethoxy)-N-(1-(2-oxoindoline-6-carbonyl)piperidin-3-yl)propanamide]
0.001 to 0.1 µM	Cc1sc2c(c1C)C(c1ccc(Cl)cc1)=N[C@@H](CC(=O)NCCC1CCN(c3ccc(-c4ccc5c(c4)CC(=O)N5)cn3)CC1)c1nnc(C)n1-2 [Compound 134, (S)-2-(4-(4-chlorophenyl)-2,3,9-trimethyl-6H-thieno[3,2-f][1,2,4]triazolo[4,3-a][1,4]diazepin-6-yl)-N-(2-(1-(5-(2-oxoindolin-5-yl)pyridin-2-yl)piperidin-4-yl)ethyl)acetamide]
0.1 to 1 µM	Cc1sc2c(c1C)C(c1ccc(Cl)cc1)=N[C@@H](CC(=O)NCCOCCOCCOCCOCCOCCNc1ccc(-c3ccc4c(c3)CC(=O)N4)cn1)c1nnc(C)n1-2 [Compound 115, (S)-2-(4-(4-chlorophenyl)-2,3,9-trimethyl-6H-thieno[3,2-f][1,2,4]triazolo[4,3-a][1,4]diazepin-6-yl)-N-(17-((5-(2-oxoindolin-5-yl)pyridin-2-yl)amino)-3,6,9,12,15-pentaoxaheptadecyl)acetamide]
0.001 to 0.1 µM	Cc1sc2c(c1C)C(c1ccc(Cl)cc1)=N[C@@H](CC(=O)NCCOCCOCCOCCNc1ncccc1-c1ccc3c(c1)CC(=O)N3)c1nnc(C)n1-2 [Compound 107, (S)-2-(4-(4-chlorophenyl)-2,3,9-trimethyl-6H-thieno[3,2-f][1,2,4]triazolo[4,3-a][1,4]diazepin-6-yl)-N-(2-(2-(2-(2-((3-(2-oxoindolin-5-yl)pyridin-2-yl)amino)ethoxy)ethoxy)ethoxy)ethyl)acetamide]
0.1 to 1 µM	Cc1sc2c(c1C)C(c1ccc(Cl)cc1)=N[C@@H](CC(=O)Nc1ccc(OCCOCCOCCOCCNC(=O)c3cccc(-c4ccc5c(c4)NC(=O)C5)c3)cc1)c1nnc(C)n1-2 [Compound 102, (S)—N-(2-(2-(2-(2-(4-(2-(4-(4-chlorophenyl)-2,3,9-trimethyl-6H-thieno[3,2-f][1,2,4]triazolo[4,3-a][1,4]diazepin-6-yl)acetamido)phenoxy)ethoxy)ethoxy)ethoxy)ethyl)-3-(2-oxoindolin-6-yl)benzamide]
0.001 to 0.1 µM	Cc1sc2c(c1C)C(c1ccc(Cl)cc1)=N[C@@H](CC(=O)NCCOCCC(=O)N1CCN(c3ccc(-c4ccc5c(c4)CC(=O)N5)cn3)CC1)c1nnc(C)n1-2 [Compound 130, (S)-2-(4-(4-chlorophenyl)-2,3,9-trimethyl-6H-thieno[3,2-f][1,2,4]triazolo[4,3-a][1,4]diazepin-6-yl)-N-(2-(3-oxo-3-(4-(5-(2-oxoindolin-5-yl)pyridin-2-yl)piperazin-1-yl)propoxy)ethyl)acetamide]
0.001 to 0.1 µM	Cc1sc2c(c1C)C(c1ccc(Cl)cc1)=N[C@@H](CC(=O)N1CCC(N3CCN(c4ccc(-c5ccc6c(c5)CC(=O)N6)cn4)CC3)CC1)c1nnc(C)n1-2 [Compound 123, (S)-5-(6-(4-(1-(2-(4-(4-chlorophenyl)-2,3,9-trimethyl-6H-thieno[3,2-f][1,2,4]triazolo[4,3-a][1,4]diazepin-6-yl)acetyl)piperidin-4-yl)piperazin-1-yl)pyridin-3-yl)indolin-2-one]
0.001 to 0.1 µM	Cc1sc2c(c1C)C(c1ccc(Cl)cc1)=N[C@@H](CC(=O)NCCOCCOCCC(=O)N1CCN(c3ccc(-c4ccc5c(c4)CC(=O)N5)cn3)CC1)c1nnc(C)n1-2 [Compound 120]
